Experiment [1] has as its system HIV. In words: Inactivation of HIV from blood of sero-positive patient, reverse transcriptase activity after culture with H9 cells. It is filed as cell-based, Human Immunodeficiency Virus (HIV). The following applies: Human immunodeficiency virus 1, H9, 1 h, read-out: concentration giving complete inactivation of HIV (no reverse transcriptase detected), 1 hour at 37° C., H9 cells. The method, then:
In order to show the effectiveness of the compounds of the present invention in the inactivation of HIV, blood was obtained from an HIV sero-positive patient and treated with hypericin and pseudohypericin at various concentrations for 1 hour at 37° C. and incubated with uninfected H9 cells in culture. Thereafter, reverse transcriptase enzymatic activity was determined as disclosed in U.S. patent application Ser. Nos. 084,008 and 172,064 filed Aug. 10, 1987 and Mar. 23, 1988, respectively.
(§1) In FIG. 1, open squares represent hypericin-treated and pluses represent pseudohypericin treated HIV. […] Inactivation of the reverse transcriptase activity of the virions was not a result of a direct inhibition of reverse transcriptase activity per se, as incubation of either compound directly with purified reverse transcriptase from either avian myeloblastosis virus or murine leukemia virus had no effect on enzyme activity. Furthermore, aliquots of HIV derived from these H9 cell cultures lost the ability to replicate in culture when exposed to as little as 0.77 micrograms/ml of hypericin.

Experiment [2] deals with purified reverse transcriptase from avian myeloblastosis virus. Nature of the experiment: Direct incubation with purified reverse transcriptase. Type of experiment: biochemical. As to the method: as §1
Experiment [3] has as its target purified reverse transcriptase from murine leukemia virus (Moloney murine leukemia virus isolate Shinnick, UniProt P03355). The experiment is described as above. Type of experiment: biochemical. The method, then:
as §1

Experiment [4] concerns HIV. In words: Inhibition of HIV induced syncytia formation / cell fusion (summary over the assays). It is filed as cell-based, Human Immunodeficiency Virus (HIV). As to the method: (§2) In order to assess the effects of Hy and Ps on the ability of HIV to form syncytia, the following experiments were performed. For the analysis of HIV-1, an entry syncytia assay was performed by co-culturing H9 cells (described in Popovic, M. et al. Science 224: 497-500, 1984) infected with the IIIb isolate of HIV with uninfected Supt-1 cells (Walker, B. D. et al. Proc. Nat. Acad. Sci. (USA) 84: 8120-8124, 1987) as the target cell. HIV-2 was tested using HUT78 cells (obtained from the National Institute of Health by reference to Depository Catalog, Reagent Program, Bethesda, Md.) infected with the ROD-2 isolate of HIV-2 co-cultured with uninfected H9 target cells. The infected cells were plated in 96 well plates (10^4 cells per well in RPM1 1640 medium with 10% fetal calf serum) and incubated with or without dilutions of Ps or Hy for 30 minutes at 37° C. 1×10^5 target cells were then added per well and the number of syncytia were quantitatively and qualitatively determined after 24 hours.

The next experiment concerns HIV-1 env. In words: Syncytia assay, cell line expressing only envelope proteins of HIV-1 IIIb with Supt-1 cells. Type of experiment: cell-based. To be noted: 24 hours. As to the method:
as §2
Also tested in a syncytia assay was a constructed cell line expressing only the envelope proteins of HIV-1 type IIIb isolate (Walker, B. D. et al., supra). These cells, designated HIV-1 env in Table 6, were treated with the indicated concentrations of Ps or Hy and incubated with uninfected Supt-1 target cells as above.

A further experiment relates to HIV-2. In words: Syncytia assay, HUT78 cells infected with ROD-2 isolate co-cultured with H9 cells. Type of experiment: cell-based. The following applies: 24 hours. As to the method:
as §2

A further experiment deals with HIV-1. In words: Syncytia assay, H9 cells infected with IIIb isolate of HIV co-cultured with Supt-1 cells. Type of experiment: cell-based. To be noted: 24 hours. As to the method:
as §2

The test system of experiment [5] is HIV. To be noted: cited from earlier work.

Consider two compounds from patent US5326788A, “Biological fluid purification system” (priority 1992, dated 1994).

Turning to `Cc1cc(O)c2c(=O)c3c(O)cc(O)c4c5c(O)cc(O)c6c(=O)c7c(O)cc(CO)c8c1c2c(c34)c(c65)c78` [pseudohypericin], the IC100 in the experiment on HIV [1] is over 100 µg/mL. The “effect on enzyme activity of purified reverse transcriptase” value in experiment [2] and in experiment [3] was “no effect” each time. Besides, in the experiment on HIV [4] (compared with hypericin), the “inhibition of cell fusion” value is given as “effective but at substantially higher”. For the same compound, in the experiment with HIV [4] (syncytia formation), the “dose needed for similar inhibition relative to hypericin” value was 20-60 fold. The “syncytia score (number 0-4, size S/M/L)” value in the experiment on HIV-1 env (12 nanograms), with HIV-1 env (24 nanograms), in the experiment with HIV-1 env (47 nanograms), in the experiment on HIV-1 env (94 nanograms), with HIV-1 env (188 nanograms) and in the experiment on HIV-1 env (375 nanograms) was 4 L each time. The “syncytia score (number 0-4, size S/M/L)” value in the experiment on HIV-1 env (750 nanograms) came out at 4 L; with HIV-1 env (1500 nanograms), 3 L; in the experiment with HIV-1 env (3000 nanograms) it was 1S; in the experiment on HIV-2 (12 nanograms), 4 L; in the experiment on HIV-2 (24 nanograms), 4 L; in the experiment on HIV-2 (47 nanograms), 4 L. Besides, the “syncytia score (number 0-4, size S/M/L)” value was 4 L with HIV-2 (94 nanograms); 4 L with HIV-2 (188 nanograms); 4 L in the experiment with HIV-2 (375 nanograms); 3 M in the experiment on HIV-2 (750 nanograms); 2S in the experiment on HIV-2 (1500 nanograms); 2S in the experiment on HIV-2 (3000 nanograms). Further, the “syncytia score (number 0-4, size S/M/L)” value in the experiment with HIV-1 (12 nanograms), with HIV-1 (24 nanograms), in the experiment with HIV-1 (47 nanograms), with HIV-1 (94 nanograms), with HIV-1 (188 nanograms) and with HIV-1 (375 nanograms) was 4 L each time. For the same compound, the “syncytia score (number 0-4, size S/M/L)” value with HIV-1 (750 nanograms) was 4 L; in the experiment on HIV-1 (1500 nanograms), 3 M; in the experiment on HIV-1 (3000 nanograms), 1S.
As to “nonylphenoxypolyethoxyethanol [Nonoxynol-9]”, the “concentration effective against free virus” value in the experiment on HIV [5] is > 0.05 % (vol/vol).
